From patent US7476666B2, “HIV integrase inhibitors” (Merck & Co., Inc., priority 2004, dated 2009)

Key:
[1] = tested on: acute HIV infection of T-lymphoid cells; assay: Inhibition of acute HIV infection of T-lymphoid cells (spread assay); format: cell-based; settings: Human immunodeficiency virus 1
Experimental: An assay for the inhibition of acute HIV infection of T-lymphoid cells (alternatively referred to herein as the “spread assay”) was conducted in accordance with Vacca, J. P. et al., Proc. Natl. Acad. Sci. USA 1994, 91: 4096.

[2] = tested on: acute HIV infection with HeLa P4-2 cells; assay: Single cycle infectivity assay with HeLa P4-2 cells (vertical assay); format: cell-based; settings: Human immunodeficiency virus 1, HeLaP4-2
Experimental: An assay for measuring the inhibition of acute HIV infection with HeLa P4-2 cells in a single cycle infectivity assay (alternatively referred to herein as the “vertical assay”) was conducted in accordance with Joyce, J. G. et al., J. Biol. Chem. 2002, 277: 45811, Hazuda, D. J. et al., Science, 2000, 287, 646, and Kimpton, J. et al, J. Virol. 1992, 66: 2232.

[3] = target: T1, recombinant integrase (HIV integrase) (Human immunodeficiency virus type 1 group M subtype B, UniProt P04585); assay: HIV integrase assay: strand transfer catalyzed by recombinant integrase; format: biochemical; settings: assay per WO 02/30930, read-out: IC50, inhibition of strand transfer activity of integrase
T1 construct: Strand Transfer Catalyzed by Recombinant Integrase
Experimental: Assays for the strand transfer activity of integrase were conducted in accordance with WO 02/30930 for recombinant integrase.
Further description on conducting the assay using preassembled complexes is found in Wolfe, A. L. et al., J. Virol. 1996, 70: 1424-1432, Hazuda et al., J. Virol. 1997, 71: 7005-7011; Hazuda et al., Drug Design and Discovery 1997, 15: 17-24; and Hazuda et al., Science 2000, 287: 646-650.

Row | SMILES | IC95 [1] | IC50 [2] | IC50 [3]
1 | O=C(c1nn2c(c1O)C(=O)N(Cc1ccc(F)cc1)CC2)N1CCOCC1 [Example 28, 5-(4-Fluorobenzyl)-3-hydroxy-2-(morpholin-4-ylcarbonyl)-4-oxo-4,5,6,7-tetrahydropyrazolo[1,5-a]pyrazine] | > 10 µM | < 40 µM | 
2 | CN(Cc1ccc2nccnc2c1)C(=O)c1nn2c(c1O)C(=O)N(C)CC2 [Example 17, 3-Hydroxy-5-methyl-4-oxo-2-{[quinoxalin-6-ylmethyl(methyl)amino]carbonyl}-4,5,6,7-tetrahydropyrazolo[1,5-a]pyrazine] | > 10 µM | < 40 µM | 
3 | CNC(=O)c1nn2c(c1O)C(=O)N(Cc1ccc(F)cc1)C(C)C2 (stereo not shown) [Example 6, 5-(4-Fluorobenzyl)-3-hydroxy-N-methyl-6-methyl-4-oxo-4,5,6,7-tetrahydropyrazolo[1,5-a]pyrazine-2-carboxamide] | > 10 µM | < 40 µM | 
4 | Cc1csc(C2CN(C)C(=O)c3c(O)c(C(=O)NCc4ccc(F)cc4)nn32)n1 (stereo not shown) [Example 11, N-(4-Fluorobenzyl)-3-hydroxy-5-methyl-7-(4-methyl-1,3-thiazol-2-yl)-4-oxo-4,5,6,7-tetrahydropyrazolo[1,5-a]pyrazine-2-carboxamide] | ≤ 10 µM |  | 
5 | CNC(=O)c1cc(F)ccc1CNC(=O)c1nn2c(c1O)C(=O)N(C)C[C@H]2c1ccccc1 [Example 34, (7R)-N-{4-Fluoro-2-[(methylamino)carbonyl]benzyl}-3-hydroxy-5-methyl-4-oxo-7-phenyl-4,5,6,7-tetrahydropyrazolo[1,5-a]pyrazine-2-carboxamide] | ≤ 10 µM |  | 
6 | CN1CC(CN2CCCCC2)n2nc(C(=O)NCc3ccc(F)cc3)c(O)c2C1=O (stereo not shown) [Example 9, N-(4-fluorobenzyl)-3-hydroxy-5-methyl-4-oxo-7-(piperidin-1-ylmethyl)-4,5,6,7-tetrahydropyrazolo[1,5-a]pyrazine-2-carboxamide] | ≤ 10 µM |  | 
7 | O=C(NCc1ccc(F)cc1)c1nn2c(c1O)C(=O)NCCC2 [Example 29, N-(4-Fluorobenzyl)-3-hydroxy-4-oxo-5,6,7,8-tetrahydro-4H-pyrazolo[1,5-a][1,4]diazepine-2-carboxamide] | ≤ 10 µM |  | 
8 | O=C(NCc1ccc(Cl)c(Cl)c1)c1nn2c(c1O)C(=O)N(CC1CC1)CC2 [Example 21, 5-Cyclopropylmethyl-N-(3,4-dichlorobenzyl)-3-hydroxy-4-oxo-4,5,6,7-tetrahydropyrazolo[1,5-a]pyrazine-2-carboxamide] | ≤ 10 µM |  | 
9 | CN(C)C(=O)c1cc(F)ccc1CNC(=O)c1nn2c(c1O)C(=O)N(C)C[C@@H]2c1ccccc1 [Example 38, (7S)-N-{2-[(Dimethylamino)carbonyl]-4-fluorobenzyl}-3-hydroxy-5-methyl-4-oxo-7-phenyl-4,5,6,7-tetrahydropyrazolo[1,5-a]pyrazine-2-carboxamide] | ≤ 10 µM |  | 
10 | CN(Cc1ccc(F)cc1)C(=O)c1nn2c(c1O)C(=O)N(C)CC2 [Example 13, 2-[4-fluorobenzyl(methyl)aminocarbonyl]-3-hydroxy-5-methyl-4-oxo-4,5,6,7-tetrahydropyrazolo[1,5-a]pyrazine-2-carboxamide] | ≤ 10 µM |  | 
11 | CN1CCn2nc(C(=O)N(CCO)Cc3ccccc3)c(O)c2C1=O [Example 18, 2-[Benzyl(2-hydroxyethyl)aminocarbonyl]-3-hydroxy-5-methyl-4-oxo-4,5,6,7-tetrahydropyrazolo[1,5-a]pyrazine] | > 10 µM | > 100 µM | 
12 | COC(=O)c1nn2c(c1O)C(=O)N(Cc1ccc(F)cc1)CC2 [Example 1, Methyl 5-(4-fluorobenzyl)-3-hydroxy-4-oxo-4,5,6,7-tetrahydropyrazolo[1,5-a]pyrazine-2-carboxylate] | > 10 µM | > 100 µM | 
13 | O=C(NC1CCNCC1)c1nn2c(c1O)C(=O)N(Cc1ccc(F)cc1)CC2 [Example 25, 5-(4-Fluorobenzyl)-3-hydroxy-4-oxo-N-(4-piperidinyl)-4,5,6,7-tetrahydropyrazolo[1,5-a]pyrazine-2-carboxamide] | > 10 µM | < 40 µM | 
14 | CN1C[C@@H](c2ccccc2)n2nc(C(=O)NCc3ccc(F)cc3C(=O)NC3CC3)c(O)c2C1=O [Example 35, (7R)-N-{2-[(Cyclopropylamino)carbonyl]-4-fluorobenzyl}-3-hydroxy-5-methyl-4-oxo-7-phenyl-4,5,6,7-tetrahydropyrazolo[1,5-a]pyrazine-2-carboxamide] | ≤ 10 µM |  | 
15 | CNC(=O)c1cc(F)ccc1CNC(=O)c1nn2c(c1O)C(=O)N(C)CC2c1ccccn1 (stereo not shown) [Example 47, N-{4-Fluoro-2-[(methylamino)carbonyl]benzyl}-3-hydroxy-5-methyl-4-oxo-7-pyridin-2-yl-4,5,6,7-tetrahydropyrazolo[1,5-a]pyrazine-2-carboxamide] | ≤ 10 µM |  | 
16 | CN(C)CCN(Cc1ccccc1)C(=O)c1nn2c(c1O)C(=O)N(C)CC2 [Example 19, 2-{Benzyl[2-(dimethylamino)ethyl]aminocarbonyl}-3-hydroxy-5-methyl-4-oxo-4,5,6,7-tetrahydropyrazolo[1,5-a]pyrazine] | > 10 µM | > 100 µM | > 10 µM
17 | CN1CCn2nc(C(=O)N3CCCC3c3ccccc3)c(O)c2C1=O (stereo not shown) [Example 16, 3-Hydroxy-5-methyl-4-oxo-2-[(2-phenylpyrrolidin-1-yl)carbonyl]-4,5,6,7-tetrahydropyrazolo[1,5-a]pyrazine] | > 10 µM |  | > 10 µM
18 | O=C(NCCN1CCOCC1)c1nn2c(c1O)C(=O)N(Cc1ccc(F)cc1)CC2 [Example 23, 5-(4-Fluorobenzyl)-3-hydroxy-N-[2-(4-morpholinyl)ethyl]-4-oxo-4,5,6,7-tetrahydropyrazolo[1,5-a]pyrazine-2-carboxamide] | ≤ 10 µM |  | 
19 | CN(C)C(=O)c1cc(F)ccc1CNC(=O)c1nn2c(c1O)C(=O)N(C)C[C@H]2c1ccccc1 [Example 37, (7R)-N-{2-[(Dimethylamino)carbonyl]-4-fluorobenzyl}-3-hydroxy-5-methyl-4-oxo-7-phenyl-4,5,6,7-tetrahydropyrazolo[1,5-a]pyrazine-2-carboxamide] | ≤ 10 µM |  | 
20 | CN1CCn2nc(C(=O)N3CCc4ccccc4C3)c(O)c2C1=O [Example 14, 3-Hydroxy-5-methyl-4-oxo-2-[(1,2,3,4-tetrahydro-isoquinolin-2-yl)carbonyl]-4,5,6,7-tetrahydropyrazolo[1,5-a]pyrazine] | > 10 µM |  | > 10 µM
21 | CNC(=O)c1cc(F)ccc1CNC(=O)c1nn2c(c1O)C(=O)N(C)C[C@@H]2c1ccccc1 [Example 33, (7S)—N-{4-Fluoro-2-[(methylamino)carbonyl]benzyl}-3-hydroxy-5-methyl-4-oxo-7-phenyl-4,5,6,7-tetrahydropyrazolo[1,5-a]pyrazine-2-carboxamide] | ≤ 10 µM |  | 
22 | CNC(=O)c1cc(F)ccc1CNC(=O)c1nn2c(c1O)C(=O)N(C)CC2c1ccccc1 (stereo not shown) [Example 3, N-(4-Fluoro-2-[(methylamino)carbonyl]benzyl)-3-hydroxy-5-methyl-4-oxo-7-phenyl-4,5,6,7-tetrahydropyrazolo[1,5-a]pyrazine-2-carboxamide] | ≤ 10 µM |  | 
23 | CCCCNC(=O)c1nn2c(c1O)C(=O)N(Cc1ccc(F)cc1)CC2 [Example 24, N-Butyl-5-(4-fluorobenzyl)-3-hydroxy-4-oxo-4,5,6,7-tetrahydropyrazolo[1,5-a]pyrazine-2-carboxamide] | ≤ 10 µM |  | 
24 | O=C(NCc1ccc(Cl)c(Cl)c1)c1nn2c(c1O)C(=O)N(CCN1CCOCC1)CC2 [Example 22, N-(3,4-Dichlorobenzyl)-3-hydroxy-5-[2-(4-morpholinyl)ethyl]-4-oxo-4,5,6,7-tetrahydropyrazolo[1,5-a]pyrazine-2-carboxamide] | ≤ 10 µM |  | 
